As a reminder, the pIC50 is the negative decadic logarithm of the IC50, by convention in mol/L. What is called inhibition is the share of the control response that was lost under treatment. Lower therefore signals little suppression.

Structures are written as SMILES. pIC50: −log10 of the molar value.

Data on eight compounds can be found in ChEMBL document CHEMBL5233244, “Therapeutic potential of targeting α/β-Hydrolase domain-containing 6 (ABHD6)” (Eur J Med Chem, 2020).

Assay [1] has as its target T1, Monoacylglycerol lipase ABHD6 (Mus musculus, UniProt Q8R2Y0).
T1 sequence (Q8R2Y0 whole entry): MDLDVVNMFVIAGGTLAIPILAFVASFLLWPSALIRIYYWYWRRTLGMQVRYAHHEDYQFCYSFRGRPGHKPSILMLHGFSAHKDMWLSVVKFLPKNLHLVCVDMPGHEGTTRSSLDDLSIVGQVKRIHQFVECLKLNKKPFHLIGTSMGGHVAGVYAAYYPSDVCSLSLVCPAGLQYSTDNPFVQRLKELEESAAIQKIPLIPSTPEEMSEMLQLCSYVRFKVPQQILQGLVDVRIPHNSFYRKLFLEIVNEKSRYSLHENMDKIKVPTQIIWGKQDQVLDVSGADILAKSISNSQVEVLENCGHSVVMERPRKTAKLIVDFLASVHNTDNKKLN
Nature of the assay: Inhibition of ABHD6 in mouse brain membrane using FP-biotin as substrate incubated for 1 hr by LC-MS based ABPP-MudPIT analysis. Type of assay: cell membranes.

The target of assay [2] is T1, Monoacylglycerol lipase ABHD6. As to the kind of experiment: Inhibition of ABHD6 in mouse brain membrane using HT-01 probe as substrate incubated for 30 mins by gel based competitive ABPP assay. Type of assay: cell membranes.
Assay [3] addresses T2, Monoacylglycerol lipase ABHD6 (Homo sapiens, UniProt Q9BV23).
T2 sequence (Q9BV23 whole entry): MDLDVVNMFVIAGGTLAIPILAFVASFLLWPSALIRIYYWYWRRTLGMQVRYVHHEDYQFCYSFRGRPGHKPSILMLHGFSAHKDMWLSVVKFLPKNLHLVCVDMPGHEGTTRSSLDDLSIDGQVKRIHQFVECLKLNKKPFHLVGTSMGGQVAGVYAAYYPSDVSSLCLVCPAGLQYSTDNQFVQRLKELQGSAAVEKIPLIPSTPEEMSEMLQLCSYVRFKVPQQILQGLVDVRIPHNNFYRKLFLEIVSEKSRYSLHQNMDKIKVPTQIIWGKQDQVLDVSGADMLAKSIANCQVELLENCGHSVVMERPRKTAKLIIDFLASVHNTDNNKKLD
Nature of the assay: Inhibition of human recombinant ABHD6.

In assay [4] the target is T2, Monoacylglycerol lipase ABHD6. As to the kind of experiment: Inhibition of ABHD6 (unknown origin).
In assay [5] the target is T1, Monoacylglycerol lipase ABHD6. Nature of the assay: Inhibition of mouse ABHD6 expressed in COS-7 cells using 2-[3H]AG as substrate incubated for 30 mins by liquid scintillation analysis. Type of assay: cell-based.
Assay [6] addresses T3, Fatty-acid amide hydrolase 1 (Mus musculus) (UniProt O08914).
T3 sequence (whole entry): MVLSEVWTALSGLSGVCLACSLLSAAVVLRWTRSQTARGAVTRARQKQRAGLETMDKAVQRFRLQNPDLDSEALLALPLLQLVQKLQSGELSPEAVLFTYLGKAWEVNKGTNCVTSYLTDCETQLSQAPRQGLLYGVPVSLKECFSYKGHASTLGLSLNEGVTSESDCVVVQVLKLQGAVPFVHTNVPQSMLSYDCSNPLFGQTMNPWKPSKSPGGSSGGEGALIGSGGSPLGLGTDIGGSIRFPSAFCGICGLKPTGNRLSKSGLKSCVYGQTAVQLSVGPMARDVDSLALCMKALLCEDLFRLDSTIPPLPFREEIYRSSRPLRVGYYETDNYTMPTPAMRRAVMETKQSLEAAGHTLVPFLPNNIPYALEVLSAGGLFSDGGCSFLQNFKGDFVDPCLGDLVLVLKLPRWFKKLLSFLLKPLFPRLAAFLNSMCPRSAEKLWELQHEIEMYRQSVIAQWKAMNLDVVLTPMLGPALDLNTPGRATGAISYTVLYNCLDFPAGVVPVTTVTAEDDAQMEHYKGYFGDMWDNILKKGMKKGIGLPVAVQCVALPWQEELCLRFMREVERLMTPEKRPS
As to the kind of experiment: Inhibition of FAAH in mouse Primary neuron cells using [3H]AEA as substrate at 30 uM incubated for 30 mins by liquid scintillation analysis. Type of assay: cell-based.

Assay [7] concerns the target T4, Fatty-acid amide hydrolase 1 (Mus musculus, UniProt O08914).
T4 sequence (O08914 whole entry): T3 sequence (whole entry)
Nature of the assay: Inhibition of mouse FAAH expressed in COS-7 cells using [3H]AEA as substrate incubated for 30 mins by liquid scintillation analysis. Type of assay: cell-based.

The target in assay [8] is T5, Monoacylglycerol lipase ABHD6 (Mus musculus) (UniProt Q8R2Y0).
T5 sequence (whole entry): T1 sequence (Q8R2Y0 whole entry)
Nature of the assay: Inhibition of ABHD6 in mouse Primary neuron cells using 2-[3H]AG as substrate at 30 uM incubated for 30 mins by liquid scintillation analysis. The format is cell-based.

Assay [9] has as its target T5, Monoacylglycerol lipase ABHD6 (Mus musculus). As to the kind of experiment: Inhibition of ABHD6 in mouse brain membrane using FP-biotin as substrate at 10 uM incubated for 1 hr by LC-MS based ABPP-MudPIT analysis. Type of assay: cell membranes.
For a further assay, the target named is T6, Monoglyceride lipase (Mus musculus, UniProt O35678).
T6 sequence (O35678 whole entry): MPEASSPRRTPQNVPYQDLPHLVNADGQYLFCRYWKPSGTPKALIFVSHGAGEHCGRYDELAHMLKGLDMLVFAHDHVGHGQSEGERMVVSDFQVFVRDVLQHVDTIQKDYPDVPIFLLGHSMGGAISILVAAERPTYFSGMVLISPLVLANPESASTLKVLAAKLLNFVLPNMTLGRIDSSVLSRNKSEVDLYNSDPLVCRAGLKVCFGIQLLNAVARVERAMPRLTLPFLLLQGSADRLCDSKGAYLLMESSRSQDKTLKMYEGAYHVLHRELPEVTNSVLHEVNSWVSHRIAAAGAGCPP
Nature of the assay: Inhibition of mouse MAGL expressed in COS-7 cells using 2-[3H]AG as substrate incubated for 30 mins by liquid scintillation analysis. The format is cell-based.

`CN(Cc1cccc(-c2ccccc2)c1)C(=O)Oc1ccc(-c2ccc(C(N)=O)cc2)cc1` gave a pIC50 in assay [1] of 6.37.

For `CC(C)(C)OC(=O)N1CCN(C(=O)n2cc(-c3ccc(OC(F)(F)F)cc3)nn2)C(Cc2ccccc2)C1` (stereo not given), the results for the pIC50 in [2] and in [3] were 7.10 and 8.44, respectively.

As to `COC(=O)[C@]1(C)CC[C@]2(C)CC[C@]3(C)C4=CC=C5C(=CC(=O)C(O)=C5C)[C@]4(C)CC[C@@]3(C)[C@@H]2C1` [PRISTIMERIN], the pIC50 in [4] is 5.89.

Turning to `CCCCCC/C=C\CCCCCCCC(=O)OCC1CO1` (stereo not given), the pIC50 in assay [5] is 5.62; in [7] it was 5.40. In addition, the inhibition in [6] is 60%; in assay [8], 30%.

`CC(C)(C)OC(=O)N1CCN(C(=O)n2cc(-c3ccc(OC(F)(F)F)cc3)nn2)C(c2ccccc2)C1` (stereo not given): in assay [2], the pIC50 was 7.70.

With `CN(Cc1cccc(-c2ccncc2)c1)C(=O)Oc1ccc(-c2ccc(C(N)=O)cc2)cc1`, in assay [9], the inhibition amounted to 90%.

Consider `C#CCO[C@@H]1CC[C@H](Cc2ccccc2)N(C(=O)n2ncc(C(O)(c3ccc(F)cc3)c3ccc(F)cc3)n2)C1`, for which the pIC50 in assay [2] is 6.90; in [3], 8.55.

Consider `CC/C=C\C/C=C\C/C=C\CCCCCCCC(=O)OCC1CO1` (stereo not given), for which the negative logarithm of the IC50 (pIC50) in assay [5] is 6.10; in [7], 6.05; against Monoglyceride lipase it was 3.57.
